Reference: patent US20040220148A1, “5-Membered ring heterocycles as inhibitors of leucocyte adhesion and as VLA-4 antagonists” (Aventis Pharma Deutschland GmbH, priority 1996, published 2004)
Structures can show the parent of a compound that is named as a salt.

target: T1, VLA-4 integrins on human U937 cells (interaction between VCAM-1 and VLA-4) (Homo sapiens, UniProt P05556+P13612); test: U937/VCAM-1 cell adhesion test (adhesion of U937 cells to hVCAM-1(1-3)-IgG); format: cell-based; settings: concentration leading to 50% inhibition of adhesion
T1 construct: the VLA-4 integrins, are offered in their natural form as surface molecules on human U937 cells; host or cells: U937 cells (VLA-4, endogenous); the partner hVCAM-1(1-3)-IgG came from the supernatant of transfected COS cells (ATCC CRL1651)
T1 sequence (P13612 34-1032): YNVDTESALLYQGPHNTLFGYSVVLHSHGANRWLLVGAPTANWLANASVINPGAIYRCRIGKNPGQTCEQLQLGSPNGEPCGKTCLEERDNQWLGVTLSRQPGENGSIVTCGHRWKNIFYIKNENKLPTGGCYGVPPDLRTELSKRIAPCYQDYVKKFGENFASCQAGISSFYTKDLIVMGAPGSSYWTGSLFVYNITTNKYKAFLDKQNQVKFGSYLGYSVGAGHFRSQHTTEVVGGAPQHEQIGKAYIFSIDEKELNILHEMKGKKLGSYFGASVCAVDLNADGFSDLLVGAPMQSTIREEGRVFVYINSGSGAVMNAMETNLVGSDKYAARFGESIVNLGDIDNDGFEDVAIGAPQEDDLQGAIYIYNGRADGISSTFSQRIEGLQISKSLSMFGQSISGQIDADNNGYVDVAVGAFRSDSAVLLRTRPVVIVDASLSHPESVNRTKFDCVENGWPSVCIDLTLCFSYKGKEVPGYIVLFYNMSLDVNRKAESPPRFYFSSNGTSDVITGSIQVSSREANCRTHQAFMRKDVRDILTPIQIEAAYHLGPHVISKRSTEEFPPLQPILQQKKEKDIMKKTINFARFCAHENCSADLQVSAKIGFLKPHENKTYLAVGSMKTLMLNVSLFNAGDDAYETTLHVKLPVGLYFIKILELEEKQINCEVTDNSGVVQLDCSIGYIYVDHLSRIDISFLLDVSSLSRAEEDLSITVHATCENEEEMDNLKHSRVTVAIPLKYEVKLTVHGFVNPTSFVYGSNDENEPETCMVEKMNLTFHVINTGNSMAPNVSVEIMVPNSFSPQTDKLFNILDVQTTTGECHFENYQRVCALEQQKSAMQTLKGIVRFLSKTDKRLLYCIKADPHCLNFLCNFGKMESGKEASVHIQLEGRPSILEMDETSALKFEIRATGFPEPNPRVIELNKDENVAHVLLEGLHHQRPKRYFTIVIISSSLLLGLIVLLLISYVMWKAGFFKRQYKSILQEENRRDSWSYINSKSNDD
T1 sequence (P05556 21-798): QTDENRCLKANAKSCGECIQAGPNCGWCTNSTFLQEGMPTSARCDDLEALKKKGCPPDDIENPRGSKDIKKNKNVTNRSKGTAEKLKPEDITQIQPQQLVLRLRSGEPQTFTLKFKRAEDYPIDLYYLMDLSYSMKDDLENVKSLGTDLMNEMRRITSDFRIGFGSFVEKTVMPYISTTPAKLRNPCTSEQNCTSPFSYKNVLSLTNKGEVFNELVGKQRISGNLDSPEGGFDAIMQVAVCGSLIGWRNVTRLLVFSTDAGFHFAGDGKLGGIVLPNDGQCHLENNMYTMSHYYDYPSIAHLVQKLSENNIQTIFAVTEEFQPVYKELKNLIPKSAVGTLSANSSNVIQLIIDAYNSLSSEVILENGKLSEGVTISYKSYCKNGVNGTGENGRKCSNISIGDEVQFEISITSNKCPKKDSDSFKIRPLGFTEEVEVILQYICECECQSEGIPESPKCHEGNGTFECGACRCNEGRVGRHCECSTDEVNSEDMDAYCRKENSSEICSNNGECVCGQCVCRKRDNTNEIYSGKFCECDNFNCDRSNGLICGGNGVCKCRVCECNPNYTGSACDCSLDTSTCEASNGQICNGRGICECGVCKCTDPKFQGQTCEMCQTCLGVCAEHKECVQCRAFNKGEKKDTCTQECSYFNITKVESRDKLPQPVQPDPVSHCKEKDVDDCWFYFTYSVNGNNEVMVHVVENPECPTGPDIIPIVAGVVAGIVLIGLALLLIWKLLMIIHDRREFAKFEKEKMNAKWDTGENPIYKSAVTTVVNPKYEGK
Source text: As a test method for the activity of the compounds of the formula I on the interaction between VCAM-1 and VLA-4, an assay which is specific for this interaction is used. The cellular binding components, i.e. the VLA-4 integrins, are offered in their natural form as surface molecules on human U937 cells (ATCC CRL 1593) which belong to the group of leucocytes. As specific binding components, recombinant soluble fusion proteins prepared by genetic engineering and consisting of the extracytoplasmic domains of human VCAM-1 and the constant region of a human immunoglobulin of the subclass IgG1 are used.
Assay for the Measurement of the Adhesion of U937 Cells (ATCC CRL 1593) to hVCAM-1 (1-3)-IgG
1. Preparation of Human VCAM-1(1-3)-IgG and Human CD4-IgG
A genetic construct for the expression of the extracellular domains of human VCAM-1 was employed, associated with the genetic sequence of the heavy chain of human immunoglobulin IgG1 (hinge, CH2 and CH3 regions), from Dr. Brian Seed, Massachusetts General Hospital, Boston, USA. The soluble fusion protein hVCAM-1(1-3)-IgG contained the three amino-terminal extracellular immunoglobulin-like domains of human VCAM-1 (Damle and Aruffo, Proc. Natl. Acad. Sci. USA 1991, 88, 6403). CD4-IgG (Zettlmeissl et al, DNA and Cell Biology 1990, 9, 347) served as a fusion protein for negative controls. The recombinant proteins were expressed as soluble proteins after DEAE/dextran-mediated DNA-transfection in COS cells (ATCC CRL1651) according to standard procedures (Ausubel et al., Current protocols in molecular biology, John Wiley & Sons, Inc., 1994).
2. Assay for Measurement of the Adhesion of U937 Cells to hVCAM-1(1-3)-IgG
2.1 96-well microtiter test plates (Nunc Maxisorb) were incubated at room temperature for 1 hour with 100 μl/well of a goat-anti-human IgG antibody solution (10 μg/ml in 50 mM tris, pH 9.5). After removing the antibody solution, washing was carried out once with PBS.
2.2 150 μl/well of a blocking buffer (1% BSA in PBS) were incubated on the plates at room temperature for 0.5 hours. After removing the blocking buffer, washing was carried out once with PBS.
2.3 100 μl per well of a cell culture supernatant of transfected COS cells were incubated on the plates at room temperature for 1.5 hours. The COS cells were transfected with a plasmid which codes for the three N-terminal immunoglobulin-like domains of VCAM-1, coupled to the Fc part of human IgG1 (hVCAM-1(1-3)-IgG). The content of hVCAM-1 (1-3)-IgG was about […]. After removing the culture supernatant, washing was carried out once with PBS.
2.4 The plates were incubated at room temperature for 20 minutes with […] of Fc receptor blocking buffer (1 mg/ml of γ-globulin, 100 mM NaCl, 100 μM MgCl2, 100 μM MnCl2, 100 μM CaCl2, 1 mg/ml BSA in 50 mM HEPES, pH 7.5). After removing the Fc receptor blocking buffer, washing was carried out once with PBS.
2.5 20 μl of binding buffer (100 mM NaCl, 100 μM MgCl2, 100 μM MgCl2, 100 μM CaCl2, 1 mg/ml BSA in 50 mM HEPES, pH 7.5), were initially introduced, the substances to be tested were added in 10 μl of binding buffer and the mixture was incubated for 20 minutes. As controls, antibodies against VCAM-1 (BBT, No. BBA6) and against VLA-4
(Immunotech, No. 0764) were used.
2.6 U937 cells were incubated in Fc receptor blocking buffer for 20 minutes and then pipetted in at a concentration of 1×10^6/ml and in an amount of 100 μl per well ([…]).
2.7 The plates were slowly immersed at an angle of 45° in stop buffer (100 mM NaCl, 100 μM MgCl2, 100 μM MnCl2, 100 μM CaCl2 in 25 mM Tris, pH 7.5) and shaken off. The process was repeated.
2.8 50 μl/well of a dye solution (16.7 μg/ml of Hoechst dye 33258, 4% formaldehyde, 0.5% Triton X-100 in PBS) were then incubated on the plates for 15 minutes.
2.9 The plates were shaken off and slowly immersed at an angle of 45° in stop buffer (100 mM NaCl, 100 μM MgCl2, 100 μM MnCl2, 100 μM CaCl2 in 25 mM Tris, pH 7.5). The process was repeated. […]

| IC50 [µM] | SMILES |
| --- | --- |
| 1.1 | CC1(c2ccc(C(=N)N)cc2)C(=O)N(CC(=O)N[C@@H](CC(=O)O)C(=O)N[C@H](C(=O)O)c2ccccc2)C(=O)N1Cc1ccccc1 (stereo partly drawn) [Example 4, ((R,S)-4-(4-(Amino-imino-methyl)phenyl)-3-benzyl-4-methyl-2,5-dioxoimidazolidin-1-yl)acetyl-L-aspartyl-L-phenylglycine] |
| 0.5 | C[C@@]1(c2ccc(C(=N)N)cc2)C(=O)N(CC(=O)N[C@@H](CC(=O)O)C(=O)N[C@H](C(=O)O)c2ccccc2)C(=O)N1Cc1ccc2ccccc2c1 [Example 9, ((R,S)-4-(4-(Amino-imino-methyl)phenyl)-3-((2-naphthyl)methyl)-4-methyl-2,5-dioxoimidazolidin-1-yl)acetyl-L-aspartyl-L-phenylglycine] |
| 0.09 | CN(C(=O)CN1C(=O)N(Cc2ccc(-c3ccccc3)cc2)C(C)(c2ccc(C(=N)N)cc2)C1=O)[C@@H](CC(=O)O)C(=O)N[C@H](C(=O)O)c1ccccc1 (stereo partly drawn) [Example 18, ((R,S)-4-(4-(Amino-imino-methyl)phenyl)-3-((4-biphenylyl)methyl)-4-methyl-2,5-dioxoimidazolidin-1-yl)acetyl-L-N-methyl-aspartyl-L-phenylglycine] |
| 2 | N=C(N)c1ccc(C2(Cc3ccccc3)C(=O)N(CC(=O)N[C@@H](CC(=O)O)C(=O)N[C@H](C(=O)O)c3ccccc3)C(=O)N2Cc2ccccc2)cc1 (stereo partly drawn) [Example 20, ((R,S)-4-(4-(Amino-imino-methyl)phenyl)-3,4-dibenzyl-2,5-dioxo-imidazolidin-1-yl)acetyl-L-aspartyl-L-phenylglycine] |
| 45 | CC1(c2ccc(C(=N)N)cc2)C(=O)N(CC(=O)NC(CC(=O)O)c2ccccc2)C(=O)N1Cc1ccccc1 [Example 33, (R,S)-3-(((R,S)-4-(4-(Amino-imino-methyl)phenyl)-3-benzyl-4-methyl-2,5-dioxoimidazolidin-1-yl)acetylamino)-3-phenylpropionic acid hydrochloride] |
| 250 | CCN1C(=O)N(CC(=O)N[C@@H](CC(=O)O)C(=O)N[C@H](C(=O)O)c2ccccc2)C(=O)[C@@H]1CCCN [Example 35, ((S)-4-(3-Aminopropyl)-3-ethyl-2,5-dioxoimidazolidin-1-yl)acetyl-L-aspartyl-L-phenylglycine] |
| 250 | CCN1C(=O)N(CC(=O)N[C@@H](CC(=O)O)C(=O)N[C@@H](C(=O)O)c2ccccc2)C(=O)[C@@H]1CCCNC(=N)N [Example 36, ((S)-4-(3-Guanidinopropyl)-3-ethyl-2,5-dioxoimidazolidin-1-yl)acetyl-L-aspartyl-D-phenylglycine] |
| 200 | NCCC[C@H]1C(=O)N(CC(=O)N[C@@H](CC(=O)O)C(=O)N[C@H](C(=O)O)c2ccccc2)C(=O)N1Cc1ccccc1 [Example 37, ((S)-4-(3-Aminopropyl)-3-benzyl-2,5-dioxoimidazolidin-1-yl)acetyl-L-aspartyl-L-phenylglycine] |
| 45 | N=C(N)NCCC[C@H]1C(=O)N(CC(=O)N[C@@H](CC(=O)O)C(=O)N[C@H](C(=O)O)c2ccccc2)C(=O)N1Cc1ccccc1 [Example 38, ((S)-4-(3-Guanidinopropyl)-3-benzyl-2,5-dioxoimidazolidin-1-yl)acetyl-L-aspartyl-L-phenylglycine] |
| 0.28 | C[C@]1(c2ccc(C(=N)N)cc2)C(=O)N(CC(=O)N[C@@H](CC(=O)O)C(=O)N[C@H](C(=O)O)c2ccccc2)C(=O)N1Cc1ccc2ccccc2c1 [Example 41, ((S)-4-(4-(Amino-imino-methyl)phenyl)-3-((2-naphthyl)methyl)-4-methyl-2,5-dioxoimidazolidin-1-yl)acetyl-L-aspartyl-L-phenylglycine] |
| 6.8 | CC1(c2ccc(C(=N)N)cc2)C(=O)N(CC(=O)NC[C@H](NC(=O)OCc2ccccc2)C(=O)O)C(=O)N1Cc1ccccc1 (stereo partly drawn) [Example 46, (S)-3-(((R,S)-4-(4-(Amino-imino-methyl)phenyl)-3-benzyl-4-methyl-2,5-dioxoimidazolidin-1-yl)acetylamino)-2-benzyloxycarbonylaminopropionic acid] |
| 17.5 | COc1ccc(C(CC(=O)O)NC(=O)CN2C(=O)N(Cc3ccccc3)C(C)(c3ccc(C(=N)N)cc3)C2=O)cc1OC [Example 57, (R,S)-3-(((R,S)-4-(4-(Amino-imino-methyl)phenyl)-3-benzyl-methyl-2,5-dioxoimidazolidin-1-yl)acetylamino)-3-(3,4-dimethoxyphenyl)propionic acid] |
| 25 | CC1(c2ccc(C(=N)N)cc2)C(=O)N(CC(=O)NC(CC(=O)O)c2ccc3c(c2)OCCO3)C(=O)N1Cc1ccccc1 [Example 58, (R,S)-3-(((R,S)-4-(4(Amino-imino-methyl)phenyl)-3-benzyl-4-methyl-2,5-dioxoimidazolidin-1-yl)acetylamino)-3-(3,4-ethylenedioxyphenyl)propionic acid] |
| 27.5 | COc1cc(OC)cc(C(CC(=O)O)NC(=O)CN2C(=O)N(Cc3ccccc3)C(C)(c3ccc(C(=N)N)cc3)C2=O)c1 [Example 59, (R,S)-3-(((R,S)-4-(4-(Amino-imino-methyl)phenyl)-3-benzyl-4-methyl-2,5-dioxoimidazolidin-1-yl)acetylamino)-3-(3,5-dimethoxyphenyl)propionic acid] |
| 0.37 | CC(C(=O)N[C@@H](CC(=O)O)C(=O)N[C@H](C(=O)O)c1ccccc1)N1C(=O)N(Cc2ccccc2)C(C)(c2ccc(C(=N)N)cc2)C1=O (stereo partly drawn) [Example 62, ((R,S)-2-((R,S)-4-(4-(Amino-imino-methyl)phenyl)-3-benzyl-4-methyl-2,5-dioxoimidazolidin-1-yl)-2-methylacetyl)-L-aspartyl-L-phenylglycine] |
| 0.22 | C[C@]1(c2ccc(C(=N)N)cc2)C(=O)N(CC(=O)N[C@@H](CC(=O)O)C(=O)N[C@H](C(=O)O)c2ccccc2)C(=O)N1Cc1ccccc1 [Example 63] |
| 2.25 | CC1(c2ccc(C(=N)N)cc2)C(=O)N(CC(=O)NC[C@H](NC(=O)OCc2ccc(C(F)(F)F)cc2)C(=O)O)C(=O)N1Cc1ccccc1 (some centres unmarked) [Example 67] |
| 4.5 | CC1(c2ccc(CNC(=N)N)cc2)C(=O)N(CC(=O)N[C@@H](CC(=O)O)C(=O)N[C@H](C(=O)O)c2ccccc2)C(=O)N1Cc1ccccc1 (stereo partly drawn) [Example 69, ((R,S)-4-(4-Guanidinomethylphenyl)-3-benzyl-4-methyl-2,5-dioxo-imidazolidin-1-yl)acetyl-L-aspartyl-L-phenylglycine] |
| 3 | CC1(c2ccc(N)cc2)C(=O)N(CC(=O)N[C@@H](CC(=O)O)C(=O)N[C@H](C(=O)O)c2ccccc2)C(=O)N1Cc1ccccc1 (stereo partly drawn) [Example 70, ((R,S)-4-(4-Aminophenyl)-3-benzyl-4-methyl-2,5-dioxoimidazolidin-1-yl)acetyl-L-aspartyl-L-phenylglycine] |
| 3.25 | CC1(c2ccc(NC(=N)N)cc2)C(=O)N(CC(=O)N[C@@H](CC(=O)O)C(=O)N[C@H](C(=O)O)c2ccccc2)C(=O)N1Cc1ccccc1 (stereo partly drawn) [Example 71, ((R,S)-4-(4-Guanidinophenyl)-3-benzyl-4-methyl-2,5-dioxoimidazolidin-1-yl)acetyl-Laspartyl-L-phenylglycine] |
